For data set [1], the system named is APPswe/PS1ΔE9 mice. The data set is described as follows: Morris water maze, APPswe/PS1ΔE9 mice, Animal Model Experiment 1. Conditions: for percent time spent in the platform quadrant, probe trial: 24 h after the final hidden platform training; for percent time spent in the platform quadrant, probe trial / escape latency, hidden platform training: versus control transgenic mice; for escape latency, visible platform training / escape latency, hidden platform training: oral administration from 4 months of age; for escape latency, visible platform training: transgenic mice; for swim speed as cause of the observed effects: FIG. 15d, 16d, 17d.

For data set [2] the following is noted: stated as a property, no test described; cited from earlier work.
In data set [3] the test system is γ-secretase. The data set is described as follows: γ-Secretase fluorogenic substrate assay, acute hippocampal slices. The format is cell-based, rat. Conditions: 1 μM DADLE, 30 minutes.
Data set [4] relates to γ-secretase. The data set is described as follows: γ-Secretase fluorogenic substrate assay, SH-SY5Y neuroblastoma. It is filed as cell-based. As to the method: The enhancement of γ-secretase activity upon activation of receptors is not limited to β-AR. Similar results were also observed when endogenous DOR in SH-SY5Y neuroblastoma (FIG. 7a) or in primary hippocampal cultures (FIG. 7b) were stimulated.
Again, the involvement of LEL in the enhancement of the γ-secretase activity is not limited to β-AR. […] The experiment shown in FIG. 12 was performed with SH-SY5Y neuroblastoma. […] The fractions were subjected to […] (Aβ) assay and fluorogenic substrate assay.

Data set [5] concerns APPswe/PS1ΔE9 mice. Kind of data set: Cerebral amyloid plaque formation in APPswe/PS1ΔE9 mice after chronic administration. Conditions: daily for 30 days, 3 nM Iso i.c.v., 2 mg/kg Cle oral, 1 mg/kg ICI 118,551 oral.
The test system of data set [6] is APPswe/PS1ΔE9 double-transgenic mice. Kind of data set: Morris water maze, APPswe/PS1ΔE9 mice, Animal Model Experiment 2. The format is in vivo, mouse. Conditions: for escape latency, visible platform / escape latency, hidden platform: oral daily for 30 days, 2 mg/kg clenbuterol or 1 mg/kg ICI 118,551; for escape latency, hidden platform: versus Sal mice. As to the method: In further animal experiments, four-month old APPswe/PS1ΔE9 double-transgenic mice were orally administered with saline (Sal), 2 mg/kg clenbuterol (Cle, a β2AR-selective agonist) or 1 mg/kg ICI 118,551 (ICI, a β2AR-selective antagonist) daily for 30 days.
The water maze was a circular 1.2 m pool filled with water at 24-25° C. and made opaque by the addition of milk powder. The pool was placed amid fixed spatial cues consisting of boldly patterned curtains and shelves containing distinct objects. […] Mice first underwent visible platform training for 2 consecutive days (eight trials per day), swimming to a raised circular platform (10 cm of diameter) marked with a pole. Visible platform days were split into two training blocks of four trials for statistical analysis. During visible platform training, both the platform location (NE, SE, SW, or NW) and start position (N, […], S, or W) were varied pseudo-randomly in each trial.
Hidden platform raining was conducted over 6 consecutive days (four trials per day), wherein mice were allowed to search for a platform submerged 1.5 cm beneath the surface of the water. Mice failing to reach the platform within 60 sec were led to the platform. During hidden-platform trials, the location of the platform remained constant, and mice entered the pool in one of the four pseudo-randomly selected locations (N, E, S, or W). After each hidden platform trial, mice remained on the platform for 30 sec and were removed from the platform and returned to their home cage.
Twenty-four hours after the final hidden platform training, a probe trial was conducted in which the platform was removed from the pool and mice were allowed to search for the platform for 60 sec. All trials were monitored by a camera mounted directly above the pool and were recorded and analyzed using a computerized tracking system.

Data set [7] relates to γ-secretase. The data set is described as follows: γ-Secretase fluorogenic substrate assay, C6 glioma membrane fractions. It is filed as cell-based.
For a further data set, the system named is endogenous β-ARs. The data set is described as follows: Secreted Aβ ELISA in primary hippocampal cultures expressing C99, β-AR stimulation. It is filed as cell-based, rat. To be noted: 10 μM Iso, 1 h.
For data set [8], the system named is γ-secretase. To be noted: wild-type versus presenilin-deficient MEFs; 10 μM Iso, 30 min.
For data set [9], the system named is γ-secretase. The data set is described as follows: Immunofluorescence microscopy of acute hippocampal slices, localization of γ-secretase in LEL. Conditions: Iso treatment.
Another data set addresses T1, β2AR (Homo sapiens, UniProt P07550).
T1 construct: expressed in transfected cells; host or cells: HEK293
Kind of data set: Secreted Aβ ELISA in HEK293 cells co-expressing β2AR and APPswe. The format is cell-based. Conditions: 10 μM Iso 1 h with 10 μM Pro, or after 6-h pre-treatment with 1 μM L685,458.

The next data set concerns Aβ40 and Aβ42. Kind of data set: Aβ levels in rat hippocampus after acute injection (rat Aβ ELISA). To be noted: rats, 2 μg norepinephrine i.c.v. or 0.5 mg/kg clenbuterol i.p.
Data set [10] concerns γ-secretase. Kind of data set: γ-Secretase activity in rat hippocampus after acute injection (fluorogenic substrate assay). Conditions: rats, 2 μg norepinephrine i.c.v. or 0.5 mg/kg clenbuterol i.p.
The target in the next data set is δ-opioid receptor (DOR) (Homo sapiens, UniProt P41143). Conditions: C99-transfected HEK293 cells; DADLE plus NALT.
Data set [11] has as its system γ-secretase. Kind of data set: γ-Secretase fluorogenic substrate assay, HEK293 cells treated with transferrin. The format is cell-based. Conditions: transferrin-induced endocytosis. Here is the method: However, it is till not clear whether clathrin-mediated endocytosis by itself is […] to induce the enhancement of γ-secretase activity. To answer this question, HEK293 cells were treated with transferrin, which can induce constitutive clathrin-dependent endocytosis of transferrin receptor.

Entries after “also recorded” stand apart in the source; their conditions may differ.

T1 sequence (P07550 whole entry): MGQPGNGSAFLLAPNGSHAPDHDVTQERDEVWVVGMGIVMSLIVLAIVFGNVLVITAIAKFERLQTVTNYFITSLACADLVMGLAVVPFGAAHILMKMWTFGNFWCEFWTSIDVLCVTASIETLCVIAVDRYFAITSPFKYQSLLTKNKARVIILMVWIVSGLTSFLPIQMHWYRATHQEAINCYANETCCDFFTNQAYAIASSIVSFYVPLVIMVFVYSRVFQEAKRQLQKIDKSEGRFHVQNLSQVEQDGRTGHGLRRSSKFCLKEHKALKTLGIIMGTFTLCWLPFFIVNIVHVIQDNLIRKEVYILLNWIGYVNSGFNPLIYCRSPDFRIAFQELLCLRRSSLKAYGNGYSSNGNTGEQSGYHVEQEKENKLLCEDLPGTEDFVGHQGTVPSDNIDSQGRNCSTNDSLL
Sequence of δ-opioid receptor (DOR) (P41143 whole entry): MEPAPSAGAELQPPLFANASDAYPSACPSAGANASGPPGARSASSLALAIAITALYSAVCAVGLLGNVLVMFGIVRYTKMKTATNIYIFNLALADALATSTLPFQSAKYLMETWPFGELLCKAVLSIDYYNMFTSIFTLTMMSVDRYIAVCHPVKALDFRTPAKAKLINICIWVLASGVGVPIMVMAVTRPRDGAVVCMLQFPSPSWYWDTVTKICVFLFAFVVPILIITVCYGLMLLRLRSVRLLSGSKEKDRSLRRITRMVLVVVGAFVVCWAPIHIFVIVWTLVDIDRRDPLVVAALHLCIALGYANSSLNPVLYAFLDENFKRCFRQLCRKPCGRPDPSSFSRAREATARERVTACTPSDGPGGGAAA

In the case of `CC(C)NCC(O)COc1ccc(CCOCC2CC2)cc1` (centres unmarked) [Betaxolol], in the data set on APPswe/PS1ΔE9 mice [1], the “percent time spent in the platform quadrant, probe trial” value (“percent time spent” below) is “showed less significant effect; also recorded: showed no effect”; the “escape latency, visible platform training” value is reported as “no drug effect was observed”; the “escape latency, hidden platform training” value is given as “showed some effect; also recorded: showed some extent of amelioration, but the effect was not statistically significant”. Also, the “crossing of the blood-brain barrier (BBB)” value (“crossing” below) in [2] is recorded as “can cross the BBB”.

For `COc1ccc(OC)c(C(O)C(C)NC(C)(C)C)c1` (centres unmarked) [Butoxamine], in the data set on APPswe/PS1ΔE9 mice [1], the “swim speed as cause of the observed effects” value (“swim speed as cause” below) is “not due to difference in swim speeds”; the “escape latency, visible platform training” value is given as “no drug effect was observed”; the “escape latency, hidden platform training” value is recorded as “significantly ameliorated cognitive impairment”. Moreover, the “crossing” value in data set [2] is on record as “can cross the BBB”.

In the case of `CC(C)C[C@@H](NC(=O)[C@H](Cc1ccccc1)NC(=O)CNC(=O)[C@@H](C)NC(=O)[C@@H](N)Cc1ccc(O)cc1)C(=O)O` [DADLE, [D-Ala^2, D-Leu^5]-enkephalin], the γ-secretase activity entry in the data set with γ-secretase [3] is on record as “enhanced γ-secretase activity”; with γ-secretase [4] (SH-SY5Y neuroblastoma, 1 μM DADLE, 30 minutes) it was “enhanced γ-secretase activity”. In the data set on γ-secretase [4] (SH-SY5Y, 1 μM DADLE 30 minutes, then fractionated), the “γ-secretase activity in the AP positive fraction” value is given as “enhanced the γ-secretase activity in the AP positive fraction”.

Take `Cc1ccc(OCC(O)C(C)NC(C)C)c2c1CCC2` (centres unmarked) [ICI 118,551]: in the data set with APPswe/PS1ΔE9 mice [1], the “swim speed as cause” value is recorded as “did not result from changes in swim speeds”; the “escape latency, visible platform training” value is on record as “no drug effect was observed”; the “escape latency, hidden platform training” value is reported as “significantly ameliorated cognitive impairment”. In the data set on APPswe/PS1ΔE9 mice [5], the cerebral amyloid plaques result was “significantly reduced the amounts of amyloid plaques; also recorded: effective in suppressing the formation of β-amyloid plaques”. For the same molecule, the “percentage time spent on the platform, probe trial” value in [6] (24-h after final hidden platform training, 1 mg/kg ICI 118,551 oral daily for 30 days, listed as ICI) is recorded as “spent greater proportion of time in the platform; also recorded: spent greater proportion of time in the target quadrant”. Moreover, in [6], the “escape latency, visible platform” value was “small, but statistically insignificant, effects of drug treatments; also recorded: No significant effect” and the “escape latency, hidden platform” value is recorded as “displayed a faster learning curve than the Sal mice; also recorded: displayed a faster learning curve than the Sal ones”. Besides, the “crossing” value in [2] is given as “can cross the BBB”.

On to `CC(C)NCC(O)c1ccc(O)c(O)c1` (centres unmarked) [Iso, isoproterenol], for which, in the data set with γ-secretase [7], the “γ-secretase activity, compound alone” value was “γ-secretase activity was enhanced”. In addition, the cerebral amyloid plaques entry with APPswe/PS1ΔE9 mice [5] is “increased cerebral amyloid plaques; also recorded: accelerated amyloid plaque formation”. In addition, in the data set with endogenous β-ARs, the “secreted Aβ” value is recorded as “increases Aβ production”. Further, the “Iso-induced enhancement of γ-secretase activity” value in the data set with γ-secretase [8] is “Presenilin-deficiency abolished the Iso-induced enhancement”. Besides, the “co-localization of PS1 or nicastrin with LAMP-1” value in the data set with γ-secretase [9] is reported as “increased”.

On to `CC(C)C[C@H](NC(=O)[C@H](Cc1ccccc1)C[C@@H](O)[C@H](Cc1ccccc1)NC(=O)OC(C)(C)C)C(=O)N[C@@H](Cc1ccccc1)C(N)=O` [L685,458], for which the “effect on Iso-induced increase in secreted Aβ” value at β2AR is recorded as “abolished the increased production of the secreted Aβ”.

`COCCc1ccc(OCC(O)CNC(C)C)cc1` (centres unmarked) [Metoprolol]: in the data set with APPswe/PS1ΔE9 mice [1], the “percent time spent” value was “showed no effect”; the “escape latency, visible platform training” value was “no drug effect was observed”; the “escape latency, hidden platform training” value is recorded as “showed no effect”. The “percent time spent” value in the data set on APPswe/PS1ΔE9 mice [1] (listed as metoprolol) is reported as “had no effect”.

For `CC(C)(C)NCC(O)c1cc(Cl)c(N)c(Cl)c1` (centres unmarked) [clenbuterol], in the data set on Aβ40 and Aβ42, the “Aβ levels (Aβ40 and Aβ42) in hippocampus” value is “significantly enhanced; also recorded: increased secreted Aβ 40 and Aβ 42 levels”. Further, the “γ-secretase activity in hippocampus” value with γ-secretase [10] is on record as “significantly enhanced; also recorded: enhanced γ-secretase activity”. In addition, the cerebral amyloid plaques entry in the data set on APPswe/PS1ΔE9 mice [5] is “accelerated amyloid plaque formation”; in the data set on APPswe/PS1ΔE9 mice [5] (listed as Cle) it was “increased cerebral amyloid plaques”. Further, the “escape latency, visible platform” value in [6] was “small, but statistically insignificant, effects of drug treatments; also recorded: No significant effect”. Also, in data set [6], the “escape latency, hidden platform” value was “seemed to have no effect”.

In the case of `CC(C)(C)NCC(O)COc1cccc2c1CC(O)C(O)C2` (centres unmarked) [nadolol], in the data set with APPswe/PS1ΔE9 mice [1], the “percent time spent” value is given as “had no effect”; the “escape latency, visible platform training” value is listed as “No genotype or drug effect”; the “escape latency, hidden platform training” value is given as “showed no effect”. Besides, the “escape latency, hidden platform training” value with APPswe/PS1ΔE9 mice [1] (listed as Nadolol) is recorded as “showed no effect on the impairment”.

With `Oc1ccc2c3c1O[C@H]1c4[nH]c5ccccc5c4C[C@@]4(O)[C@@H](C2)N(CC2CC2)CC[C@]314` [naltrindole], the “effect on DADLE-induced Aβ production” value at δ-opioid receptor (DOR) is “abolished the effect of DADLE”. In the data set with APPswe/PS1ΔE9 mice [1], the “escape latency, visible platform training” value was “no drug effect was observed” and the “escape latency, hidden platform training” value is on record as “ameliorated cognitive impairment”. In addition, the “crossing” value in [2] is given as “can cross the BBB”.

For the molecule `NC[C@H](O)c1ccc(O)c(O)c1` [norepinephrine], in the data set with Aβ40 and Aβ42, the “Aβ levels (Aβ40 and Aβ42) in hippocampus” value was “significantly enhanced; also recorded: increased secreted Aβ 40 and Aβ 42 levels”. In addition, in the data set on γ-secretase [10], the “γ-secretase activity in hippocampus” value was “significantly enhanced; also recorded: enhanced γ-secretase activity”.

For the molecule `CC(C)NCC(O)COc1cccc2ccccc12` (centres unmarked) [propranolol], in the data set on APPswe/PS1ΔE9 mice [1], the “percent time spent” value is “partially ameliorated the impairment of spatial memory”; the “swim speed as cause” value was “did not result from difference in swim speeds”; the “escape latency, visible platform training” value is listed as “No genotype or drug effect”; the “escape latency, hidden platform training” value is given as “partially ameliorate the impairment”.

As for cholera toxin, in the data set with γ-secretase [7], the “γ-secretase activity, compound alone” value was “did not result in enhanced γ-secretase activity”.

concanavalin A [Con A]: the “effect on Iso-induced enhancement of γ-secretase activity” value in the data set with γ-secretase [7] (C6 glioma, 10 μM Iso 30 min after pretreatment with 0.25 mg/ml Con A or 0.5 M Suc) is “abolished”.

As for pertussis toxin [PTX], in the data set on γ-secretase [4] (SH-SY5Y, 1 μM DADLE after 12 hours pre-treatment with 200 ng/ml PTX), the “effect on DADLE-induced enhancement of γ-secretase activity” value is “not abolished; also recorded: did not alter the enhancement of γ-secretase activity”.

For transferrin, in the data set on γ-secretase [11], the γ-secretase activity entry is recorded as “does not lead to enhanced γ-secretase activity; also recorded: failed to enhance γ-secretase activity”.
